Source: the supplement of paper PMC10307832

Assays:
Test in all cases: relative viability (nuclei count vs DMSO), 5 days (fraction); higher = more cells survive
Crizotinib + Pemetrexed = compound: C[C@@H](Oc1cc(-c2cnn(C3CCNCC3)c2)cnc1N)c1c(Cl)ccc(F)c1Cl [Crizotinib] + Nc1nc2[nH]cc(CCc3ccc(C(=O)N[C@@H](CCC(=O)O)C(=O)O)cc3)c2c(=O)[nH]1 [Pemetrexed] (partner 0.2 µM)
Method in brief: (§1)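 Values are medians from duplicate plates. Each reflects relative viability, defined as the nuclei count of treated wells over that of vehicle wells. Lung cancer cell lines in 1536-well plates were pin-tool dosed one day after seeding with one drug alone or with a fixed anchor-drug dose plus five library-drug doses (not always all listed) in √10 steps, then fixed, stained and imaged at 4× after 5 days.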

Crizotinib + Lapatinib = compound: C[C@@H](Oc1cc(-c2cnn(C3CCNCC3)c2)cnc1N)c1c(Cl)ccc(F)c1Cl [Crizotinib] + CS(=O)(=O)CCNCc1ccc(-c2ccc3ncnc(Nc4ccc(OCc5cccc(F)c5)c(Cl)c4)c3c2)o1 [Lapatinib] (partner 2 µM)
Method in brief: as §1

Crizotinib + Luminespib = compound: C[C@@H](Oc1cc(-c2cnn(C3CCNCC3)c2)cnc1N)c1c(Cl)ccc(F)c1Cl [Crizotinib] + CCNC(=O)c1noc(-c2cc(C(C)C)c(O)cc2O)c1-c1ccc(CN2CCOCC2)cc1 [Luminespib] (partner 0.01 µM)
Method in brief: as §1

Crizotinib + Linsitinib = compound: C[C@@H](Oc1cc(-c2cnn(C3CCNCC3)c2)cnc1N)c1c(Cl)ccc(F)c1Cl [Crizotinib] + C[C@]1(O)C[C@@H](c2nc(-c3ccc4ccc(-c5ccccc5)nc4c3)c3c(N)nccn32)C1 [Linsitinib] (partner 1 µM)
Method in brief: as §1

Row | Cell Line | relative viability (Crizotinib + Pemetrexed; first compound 0.01 µM) | relative viability (Crizotinib + Pemetrexed; first compound 0.03162 µM) | relative viability (Crizotinib + Pemetrexed; first compound 0.1 µM) | relative viability (Crizotinib + Pemetrexed; first compound 0.3162 µM) | relative viability (Crizotinib + Pemetrexed; first compound 1 µM) | relative viability (Crizotinib + Lapatinib; first compound 0.01 µM) | relative viability (Crizotinib + Lapatinib; first compound 0.03162 µM) | relative viability (Crizotinib + Lapatinib; first compound 0.1 µM) | relative viability (Crizotinib + Lapatinib; first compound 0.3162 µM) | relative viability (Crizotinib + Lapatinib; first compound 1 µM) | relative viability (Crizotinib + Luminespib; first compound 0.01 µM) | relative viability (Crizotinib + Luminespib; first compound 0.03162 µM) | relative viability (Crizotinib + Luminespib; first compound 0.1 µM) | relative viability (Crizotinib + Luminespib; first compound 0.3162 µM) | relative viability (Crizotinib + Luminespib; first compound 1 µM) | relative viability (Crizotinib + Linsitinib; first compound 0.01 µM) | relative viability (Crizotinib + Linsitinib; first compound 0.03162 µM) | relative viability (Crizotinib + Linsitinib; first compound 0.1 µM) | relative viability (Crizotinib + Linsitinib; first compound 0.3162 µM) | relative viability (Crizotinib + Linsitinib; first compound 1 µM)
1 | NCI-H358 | 0.174 | 0.168 | 0.172 | 0.18 | 0.173 | 0.392 | 0.447 | 0.445 | 0.382 | 0.483 | 0.464 | 0.431 | 0.488 | 0.416 | 0.334 | 0.663 | 0.658 | 0.744 | 0.779 | 0.899
2 | NCI-H460 | 0.0615 | 0.0628 | 0.0607 | 0.0596 | 0.0647 | 0.977 | 1.24 | 0.983 | 0.94 | 0.982 | 0.0237 | 0.0313 | 0.0367 | 0.0315 | 0.0386 | 0.736 | 0.84 | 0.718 | 0.847 | 
3 | NCI-H520 | 0.564 | 0.626 | 0.644 | 0.789 | 0.756 | 0.75 | 0.86 | 0.827 | 0.391 | 0.927 | 0.212 | 0.258 | 0.243 | 0.258 | 0.231 | 0.831 | 0.97 | 0.985 | 1.04 | 1.05
4 | NCI-H596 | 0.462 | 0.48 | 0.509 | 0.458 | 0.509 | 1.02 | 1.12 | 1.02 | 1.02 | 1.24 | 0.86 | 1.18 | 0.942 | 1.18 | 1.01 | 0.971 | 1.16 | 1.07 | 1.19 | 1.15
5 | NCI-H647 | 0.162 | 0.188 | 0.146 | 0.177 | 0.186 |  | 1.1 | 1.23 | 0.792 | 1.07 | 0.2 | 0.14 | 0.146 | 0.152 | 0.153 | 1.2 | 0.92 | 1.12 | 1.04 | 1.2
6 | NCI-H650 | 1.09 | 0.907 | 0.956 |  | 0.984 | 0.833 | 0.788 | 0.909 | 0.803 | 0.891 | 0.726 | 0.75 |  | 0.798 | 0.942 | 0.858 | 0.868 |  | 0.596 | 0.894
7 | NCI-H661 | 0.82 | 0.939 | 0.854 | 1 | 0.904 | 0.551 | 0.461 | 0.43 | 0.469 | 0.539 | 0.832 | 0.92 | 0.892 |  | 0.908 | 0.552 | 0.472 | 0.521 | 0.582 | 0.759
8 | NCI-H838 | 0.214 | 0.237 | 0.253 | 0.265 | 0.24 | 0.689 | 1.22 |  | 0.996 | 0.987 | 0.289 | 0.275 | 0.312 | 0.326 | 0.254 | 0.938 | 1.05 |  | 0.882 | 1.01
